# Laboratory results from paper PMC8333425, “Discovery of a dual Ras and ARF6 inhibitor from a GPCR endocytosis screen” (Nature Communications, 2021).
# Where “and” joins values, the source holds several entries; their conditions need not be identical. Identical values can stand only once.
# How the values were obtained:
# [1] = biological target: T1, K-Ras-Y32A (Homo sapiens, UniProt P01116, Y32A); assay: In vitro mant-GTP exchange assay, purified K-Ras-Y32A with SOS1; type: biochemical; conditions: 50 μM
# T1 construct: GST (N); FLAG (N); host or cells: E. coli BL21
# Protocol: Ras activity was assessed in a 384-well black bottom plate using the mant-GTP exchange factor assay that measures the uptake of the fluorescent nucleotide analog N-methylanthraniloyl-GTP (mant-GTP) into GTPases. For Ras activation, 2X exchange buffer, 1.66 μg of purified pGEX-6P-1-H-Ras or pGEX-6P-1-K-Ras-WT or pGEX-6P-1-K-Ras-Y32A were added per well in presence of DMSO, different concentrations of Rasarfin (as indicated) or 50 µM of compounds 21.4, 21.7, or 21.8. Using the Infinite 200 Pro plate reader (Tecan) with filters set at 360 nm and 440 nm for detecting the excitation and emissions, respectively, and temperature set at 20 °C, 5 readings were recorded every 5 s before the addition of either H2O, 40 mM EDTA or 0.66 μg purified SOS1. The fluorescence of mant-GTP uptake was measured every 30 sec for 30 min and quantified as the delta relative fluorescence units (RFU), which was calculated as the RFU post-addition minus the 5 averaged RFU pre-addition, per condition.
# [2] = test system: Ras; assay: GST-Raf1-RBD pull-down of AT1R-mediated Ras activation; type: cell-based, human; conditions: for Ras-GTP over total Ras, GST-Raf1-RBD pull-down, AT1R: Comp 21 50 μM, individual experiments
# Text: Since 21 inhibited both ERK1/2 and Akt activation by GPCRs and EGFR, we looked at a common target involved in both pathways. The small G protein Ras is an upstream regulator of both Ras-RAF-MEK-ERK and PI3K/Akt signaling pathways[35],[36]. Therefore, we explored 21’s ability to inhibit Ras activity using GST-Raf1-Ras-binding domain (RBD) in a pull-down assay. A reduction of 60% in GTP-bound Ras was noticed in pulled-down from cells treated with 21 and stimulated with either AT1R or EGFR, as compared to vehicle-treated cells (Fig. 4a, b). Complementary to this in vitro assay, we generated a Ras BRET assay, using the Raf-Ras binding domain tagged with RlucII (Raf1-RBD-RlucII) and the rGFP at the PM (rGFP-CAAX) (Supplementary Fig. 3c), to assess 21’s effects on Ras activation kinetics. […] Overexpression of either the active form of Ras (G12V) or SOS1 anchored at the PM (SOS-CAAX) produced a robust basal BRET signal that was no longer modulated by receptor activation (Supplementary Fig. 3d). […] 21’s potency to inhibit ARF6 and Ras is also consistent with its relative efficacy for inhibiting AT1R internalization and MAPK, respectively, when used at 50 μM (e.g., around 7 and 70 times the respective IC50s) (Figs. 2e and 3a). We also assessed if 21 was acting as a pan small G protein inhibitor by testing its effect on Rho and Rac/Cdc42. […] To assess Rac/Cdc42 activity, we generated a Rac/Cdc42 BRET sensor that consisted of the PAK-CRIB domain fused to RlucII (PAK-CRIB-RlucII) and the rGFP-CAAX (Supplementary Fig. 3e). PAK-CRIB, which binds to active Rac/Cdc42, was recruited to the PM upon AngII stimulation of cells and generated a robust BRET signal, which was blocked by the overexpression of the DN Rac1-T17N. Overexpression of the constitutively active Rac1-Q61L increased the basal BRET, which was no longer modulated by AT1R stimulation (Supplementary Fig. 3f).
# Activation of ARF1, ARF6, Ras, and Rho were assessed by using GST pull-down assays. […] ImageLab 5.2 software was used to quantify the digital blots as fold of the amount of pulled down protein over total protein. […]
# T1 sequence (P01116 1-188 isoform P01116-2 Y32A): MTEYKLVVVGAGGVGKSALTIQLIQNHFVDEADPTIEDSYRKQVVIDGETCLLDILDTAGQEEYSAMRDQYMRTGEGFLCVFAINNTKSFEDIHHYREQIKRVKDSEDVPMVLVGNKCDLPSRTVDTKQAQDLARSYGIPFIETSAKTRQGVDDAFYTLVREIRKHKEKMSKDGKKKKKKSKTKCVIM
smiles,measurement,setting,value
CC(C)C(=O)N1CCN(c2ccc(NC(=O)c3cc4ccccc4o3)cc2Cl)CC1 [Compound 21],SOS-mediated mant-GTP binding onto purified K-Ras-Y32A,[1],but not on K-Ras-Y32A
same,"reduction in GTP-bound Ras, AT1R-stimulated cells (pull-down)","[2]; 50 μM, compared to vehicle-treated cells",60%
same,"Ras-GTP over total Ras, GST-Raf1-RBD pull-down, AT1R",[2]; AngII,0.2615 and 0.2571 and 0.1009 and 0.2909 and 0.08351
same,"Ras-GTP over total Ras, GST-Raf1-RBD pull-down, AT1R",[2]; Ctrl (no AngII),0.2526 and 0.08678 and 0.1353 and 0.1074 and 0.09399
